Experiments:
[1] = molecular target: T1, Receptor tyrosine-protein kinase erbB-2 (Homo sapiens, UniProt P04626); assay: Inhibition of ErbB2 by time resolved fluorescence assay
[2] = molecular target: Epidermal growth factor receptor (Homo sapiens, UniProt P00533, L858R)
[3] = molecular target: T2, Insulin-like growth factor 1 receptor (Homo sapiens, UniProt P08069); assay: Inhibition of human recombinant IGF1R expressed in Sf21 cells by time resolved fluorescence assay
[4] = molecular target: T1, Receptor tyrosine-protein kinase erbB-2; assay: Inhibition of ErbB2 intracellular phosphorylation in human N87 cells by ELISA
[5] = molecular target: Epidermal growth factor receptor (Homo sapiens, UniProt P00533)
Sequence of Epidermal growth factor receptor (Homo sapiens, UniProt P00533) (P00533 whole entry): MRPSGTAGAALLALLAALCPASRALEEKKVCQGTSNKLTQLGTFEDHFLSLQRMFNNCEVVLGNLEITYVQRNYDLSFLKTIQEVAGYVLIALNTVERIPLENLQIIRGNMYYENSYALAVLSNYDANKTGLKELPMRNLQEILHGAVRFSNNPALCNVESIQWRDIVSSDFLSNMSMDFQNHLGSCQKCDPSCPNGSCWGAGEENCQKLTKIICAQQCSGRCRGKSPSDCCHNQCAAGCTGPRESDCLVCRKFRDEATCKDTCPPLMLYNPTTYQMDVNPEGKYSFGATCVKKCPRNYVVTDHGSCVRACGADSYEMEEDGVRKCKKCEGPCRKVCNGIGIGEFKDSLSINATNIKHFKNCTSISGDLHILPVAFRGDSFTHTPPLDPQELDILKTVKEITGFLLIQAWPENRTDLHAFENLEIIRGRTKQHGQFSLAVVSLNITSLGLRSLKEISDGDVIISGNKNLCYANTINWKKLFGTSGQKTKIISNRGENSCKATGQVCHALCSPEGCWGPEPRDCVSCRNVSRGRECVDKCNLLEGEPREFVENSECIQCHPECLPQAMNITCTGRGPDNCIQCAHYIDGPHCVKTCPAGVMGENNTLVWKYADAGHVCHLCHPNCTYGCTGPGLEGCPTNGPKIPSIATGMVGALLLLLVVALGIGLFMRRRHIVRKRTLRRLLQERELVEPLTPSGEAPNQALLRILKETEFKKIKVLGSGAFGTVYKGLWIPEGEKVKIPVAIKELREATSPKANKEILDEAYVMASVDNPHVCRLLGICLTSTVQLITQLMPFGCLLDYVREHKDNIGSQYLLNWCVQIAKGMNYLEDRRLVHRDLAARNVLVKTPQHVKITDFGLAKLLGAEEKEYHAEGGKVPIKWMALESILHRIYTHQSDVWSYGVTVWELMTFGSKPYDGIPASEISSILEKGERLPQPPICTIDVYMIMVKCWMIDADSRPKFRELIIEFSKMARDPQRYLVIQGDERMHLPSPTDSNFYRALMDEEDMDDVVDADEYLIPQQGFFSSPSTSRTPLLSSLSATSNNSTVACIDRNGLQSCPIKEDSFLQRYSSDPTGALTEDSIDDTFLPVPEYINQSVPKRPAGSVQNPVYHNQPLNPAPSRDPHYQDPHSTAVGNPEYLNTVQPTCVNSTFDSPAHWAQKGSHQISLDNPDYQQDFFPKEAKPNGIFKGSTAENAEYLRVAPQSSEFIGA
Description: Inhibition of EGFR intracellular phosphorylation in human A431 cells by ELISA

[6] = molecular target: T2, Insulin-like growth factor 1 receptor; assay: Inhibition of IGF1R intracellular phosphorylation in human A431 cells by ELISA; format: cell-based, A-431
[7] = Inhibition of PKA
[8] = Inhibition of P70S6K
[9] = Inhibition of FGFR
[10] = Inhibition of CK2
[11] = molecular target: Protein kinase C eta type (Homo sapiens, UniProt P24723); assay: Inhibition of PKCeta
[12] = Inhibition of MAPKAPK
[13] = molecular target: T3, Serine/threonine-protein kinase Sgk1 (Homo sapiens, UniProt O00141); assay: Inhibition of SGK
T3 sequence (O00141 whole entry): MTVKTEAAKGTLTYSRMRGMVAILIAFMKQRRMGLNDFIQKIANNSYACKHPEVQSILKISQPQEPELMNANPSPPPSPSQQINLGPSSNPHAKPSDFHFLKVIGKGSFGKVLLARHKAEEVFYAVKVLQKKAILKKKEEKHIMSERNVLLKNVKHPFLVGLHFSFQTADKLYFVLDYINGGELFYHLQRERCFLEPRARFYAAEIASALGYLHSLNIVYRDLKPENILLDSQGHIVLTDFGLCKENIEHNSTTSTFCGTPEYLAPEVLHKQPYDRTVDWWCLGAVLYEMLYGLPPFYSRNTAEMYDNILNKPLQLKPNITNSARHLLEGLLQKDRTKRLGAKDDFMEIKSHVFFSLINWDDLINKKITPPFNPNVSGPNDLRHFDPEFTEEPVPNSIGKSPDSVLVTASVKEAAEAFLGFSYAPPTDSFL

T1 sequence (P04626 whole entry): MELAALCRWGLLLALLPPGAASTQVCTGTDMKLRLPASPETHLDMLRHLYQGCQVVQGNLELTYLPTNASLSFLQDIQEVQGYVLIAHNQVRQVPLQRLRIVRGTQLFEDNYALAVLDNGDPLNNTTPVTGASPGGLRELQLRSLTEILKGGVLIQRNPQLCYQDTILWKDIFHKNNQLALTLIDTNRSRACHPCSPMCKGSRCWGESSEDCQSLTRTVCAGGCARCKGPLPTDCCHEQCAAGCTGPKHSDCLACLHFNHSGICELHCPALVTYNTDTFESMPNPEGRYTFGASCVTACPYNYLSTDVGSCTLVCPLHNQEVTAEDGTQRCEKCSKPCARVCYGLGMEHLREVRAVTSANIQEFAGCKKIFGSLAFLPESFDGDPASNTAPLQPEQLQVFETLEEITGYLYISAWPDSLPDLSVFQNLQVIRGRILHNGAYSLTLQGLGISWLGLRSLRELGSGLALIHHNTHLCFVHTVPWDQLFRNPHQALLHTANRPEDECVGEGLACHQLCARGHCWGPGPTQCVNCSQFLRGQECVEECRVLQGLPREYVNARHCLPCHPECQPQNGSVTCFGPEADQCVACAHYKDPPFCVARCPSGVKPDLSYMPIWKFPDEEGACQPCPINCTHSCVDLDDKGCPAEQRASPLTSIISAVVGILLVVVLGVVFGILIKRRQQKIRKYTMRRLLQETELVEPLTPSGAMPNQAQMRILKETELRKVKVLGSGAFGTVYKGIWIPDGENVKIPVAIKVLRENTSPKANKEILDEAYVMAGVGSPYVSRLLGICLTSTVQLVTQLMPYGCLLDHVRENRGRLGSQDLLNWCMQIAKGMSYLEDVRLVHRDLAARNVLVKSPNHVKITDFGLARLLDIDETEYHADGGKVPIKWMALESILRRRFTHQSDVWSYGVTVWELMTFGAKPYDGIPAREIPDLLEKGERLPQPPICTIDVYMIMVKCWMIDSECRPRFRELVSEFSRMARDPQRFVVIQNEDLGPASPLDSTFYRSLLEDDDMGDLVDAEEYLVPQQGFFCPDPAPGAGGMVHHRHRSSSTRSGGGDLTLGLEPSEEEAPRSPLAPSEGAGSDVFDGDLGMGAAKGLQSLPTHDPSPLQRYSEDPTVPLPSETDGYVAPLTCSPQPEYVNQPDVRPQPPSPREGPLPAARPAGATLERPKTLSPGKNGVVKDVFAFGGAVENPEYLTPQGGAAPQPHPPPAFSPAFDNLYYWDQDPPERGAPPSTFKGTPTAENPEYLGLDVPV
T2 sequence (P08069 31-736 limits assumed): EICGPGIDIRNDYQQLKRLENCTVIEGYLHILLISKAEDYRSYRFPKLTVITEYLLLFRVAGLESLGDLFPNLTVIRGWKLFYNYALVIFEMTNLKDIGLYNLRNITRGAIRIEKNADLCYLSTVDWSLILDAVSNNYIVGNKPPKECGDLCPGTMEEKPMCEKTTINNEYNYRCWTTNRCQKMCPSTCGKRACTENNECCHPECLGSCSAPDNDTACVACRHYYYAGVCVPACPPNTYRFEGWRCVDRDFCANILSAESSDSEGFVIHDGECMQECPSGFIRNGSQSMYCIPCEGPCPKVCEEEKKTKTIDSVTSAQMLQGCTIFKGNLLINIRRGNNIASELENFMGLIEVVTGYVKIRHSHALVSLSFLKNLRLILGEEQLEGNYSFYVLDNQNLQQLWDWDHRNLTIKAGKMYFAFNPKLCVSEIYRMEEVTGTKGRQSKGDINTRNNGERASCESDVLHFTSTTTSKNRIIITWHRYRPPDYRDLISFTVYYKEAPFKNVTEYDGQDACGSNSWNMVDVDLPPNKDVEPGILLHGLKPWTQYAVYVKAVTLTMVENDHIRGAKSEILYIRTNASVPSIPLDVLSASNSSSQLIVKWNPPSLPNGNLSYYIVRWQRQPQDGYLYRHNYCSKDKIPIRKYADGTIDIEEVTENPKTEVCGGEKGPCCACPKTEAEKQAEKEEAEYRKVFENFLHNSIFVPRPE
T2 sequence (P08069 741-1367 limits assumed): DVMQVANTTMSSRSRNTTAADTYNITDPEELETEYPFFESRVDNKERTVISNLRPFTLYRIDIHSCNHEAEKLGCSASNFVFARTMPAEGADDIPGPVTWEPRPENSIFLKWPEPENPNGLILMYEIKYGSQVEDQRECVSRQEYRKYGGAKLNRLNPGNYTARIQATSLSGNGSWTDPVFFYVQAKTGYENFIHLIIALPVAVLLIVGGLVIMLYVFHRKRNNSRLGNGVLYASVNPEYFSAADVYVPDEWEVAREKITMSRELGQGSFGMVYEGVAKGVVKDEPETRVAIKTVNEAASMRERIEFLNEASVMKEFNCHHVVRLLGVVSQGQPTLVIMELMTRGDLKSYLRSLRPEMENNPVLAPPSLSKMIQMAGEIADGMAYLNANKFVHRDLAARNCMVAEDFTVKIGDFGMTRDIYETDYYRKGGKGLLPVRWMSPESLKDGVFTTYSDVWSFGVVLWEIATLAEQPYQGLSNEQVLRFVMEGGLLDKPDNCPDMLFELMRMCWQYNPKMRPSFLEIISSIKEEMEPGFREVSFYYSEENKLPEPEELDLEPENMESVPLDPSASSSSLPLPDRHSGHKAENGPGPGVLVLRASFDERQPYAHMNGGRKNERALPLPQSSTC
Sequence of Epidermal growth factor receptor (Homo sapiens, UniProt P00533, L858R) (P00533 25-1210 L858R limits assumed): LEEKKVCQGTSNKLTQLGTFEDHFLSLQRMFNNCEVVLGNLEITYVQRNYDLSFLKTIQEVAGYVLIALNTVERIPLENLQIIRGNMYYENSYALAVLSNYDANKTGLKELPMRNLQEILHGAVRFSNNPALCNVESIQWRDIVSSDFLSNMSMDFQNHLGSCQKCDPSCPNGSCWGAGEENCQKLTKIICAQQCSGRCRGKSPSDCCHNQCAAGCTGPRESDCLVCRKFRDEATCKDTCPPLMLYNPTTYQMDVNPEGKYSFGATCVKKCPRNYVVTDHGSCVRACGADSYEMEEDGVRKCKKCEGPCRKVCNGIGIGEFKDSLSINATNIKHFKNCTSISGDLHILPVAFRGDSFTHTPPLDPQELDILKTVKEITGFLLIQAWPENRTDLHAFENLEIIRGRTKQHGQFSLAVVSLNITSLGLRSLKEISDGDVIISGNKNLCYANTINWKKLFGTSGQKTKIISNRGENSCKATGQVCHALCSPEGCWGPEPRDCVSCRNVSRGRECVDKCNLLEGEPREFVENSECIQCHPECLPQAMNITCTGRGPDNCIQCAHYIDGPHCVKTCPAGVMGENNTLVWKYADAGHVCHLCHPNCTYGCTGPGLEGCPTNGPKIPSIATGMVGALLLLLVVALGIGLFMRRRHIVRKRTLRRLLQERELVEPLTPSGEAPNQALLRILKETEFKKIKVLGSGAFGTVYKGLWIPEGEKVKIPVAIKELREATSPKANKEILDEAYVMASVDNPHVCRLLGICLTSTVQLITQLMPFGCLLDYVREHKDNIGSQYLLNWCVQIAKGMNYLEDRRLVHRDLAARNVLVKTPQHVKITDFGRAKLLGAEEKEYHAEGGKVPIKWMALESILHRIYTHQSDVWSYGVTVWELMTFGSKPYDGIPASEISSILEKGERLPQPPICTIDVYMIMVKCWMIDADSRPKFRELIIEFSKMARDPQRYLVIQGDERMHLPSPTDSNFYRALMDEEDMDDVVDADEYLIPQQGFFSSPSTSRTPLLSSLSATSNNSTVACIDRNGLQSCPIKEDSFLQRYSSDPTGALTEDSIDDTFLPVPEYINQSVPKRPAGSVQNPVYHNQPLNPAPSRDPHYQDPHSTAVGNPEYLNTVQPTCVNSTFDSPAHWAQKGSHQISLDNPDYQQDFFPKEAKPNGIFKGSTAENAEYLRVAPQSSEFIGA

Structure (SMILES)	IC50 [1] [nM]	IC50 [2] [nM]	IC50 [3] [nM]	further results
CN(C)CCc1cccc(Nc2nccc(-c3c(-c4cccc(NC(=O)Cc5ccccc5)c4)nc4sccn34)n2)c1	150	24	–	–
O=C(Nc1cccc(-c2nc3sccn3c2-c2ccnc(Nc3ccc(N4CCOCC4)cc3)n2)c1)c1c(F)cccc1F	86	1.9	1300	–
O=C(CC1CCCC1)Nc1cccc(-c2nc3sccn3c2-c2ccnc(Nc3ccc(N4CCOCC4)cc3)n2)c1	1300	660	580	–
CCN1CCN(c2ccc(Nc3nccc(-c4c(-c5cccc(NC(=O)c6c(F)cccc6F)c5)nc5sccn45)n3)cc2)CC1	14	0.96	230	IC50 [4]: 69 nM; IC50 [5]: 50 nM; IC50 [6]: 200 nM
CN(C)CCc1ccc(Nc2nccc(-c3c(-c4cccc(NC(=O)c5c(F)cccc5F)c4)nc4sccn34)n2)cc1	4.3	0.78	210	IC50 [4]: 27 nM; IC50 [5]: 220 nM; IC50 [6]: 330 nM
O=C(Nc1cccc(-c2nc3sccn3c2-c2ccnc(Nc3ccc(N4CCOCC4)cc3)n2)c1)c1ccccc1	4.8	7.9	1500	–
O=C(Nc1cccc(-c2nc3sccn3c2-c2ccnc(Nc3ccccc3)n2)c1)c1ccccc1Cl	35	83	> 12500	–
CCN1CCN(c2ccc(Nc3nccc(-c4c(-c5cccc(NC(=O)Cc6ccccc6)c5)nc5sccn45)n3)cc2)CC1	170	–	52	IC50 [4]: 310 nM; IC50 [6]: 41 nM
O=C(CC1CCCCC1)Nc1cccc(-c2nc3sccn3c2-c2ccnc(Nc3ccc(N4CCOCC4)cc3)n2)c1	1400	870	1100	–
O=C(Nc1cccc(-c2nc3sccn3c2-c2ccnc(Nc3ccc4c(c3)CCNC4)n2)c1)c1c(F)cccc1F	7.2	2.3	100	–
O=C(Nc1cccc(-c2nc3sccn3c2-c2ccnc(Nc3ccccc3)n2)c1)c1ccccc1	6.3	55	> 12500	–
O=C(Nc1cccc(-c2nc3sccn3c2-c2ccnc(Nc3cccc(N4CCOCC4)c3)n2)c1)c1c(F)cccc1F	86	6.2	3800	–
O=C(Nc1cccc(-c2nc3sccn3c2-c2ccnc(Nc3ccc(N4CCOCC4)cc3)n2)c1)Oc1ccccc1	170	190	450	–
O=[N+]([O-])c1cccc(-c2nc3sccn3c2-c2ccnc(Nc3ccccc3)n2)c1	6000	–	> 12500	–
O=C(Cc1ccccc1)Nc1cccc(-c2nc3sccn3c2-c2ccnc(Nc3ccc4c(c3)CCNC4)n2)c1	55	6.4	27	IC50 [4]: 120 nM; IC50 [5]: 1000 nM; IC50 [6]: 180 nM
O=C(Cc1ccccc1)Nc1cccc(-c2nc3sccn3c2-c2ccnc(Nc3cccc(N4CCOCC4)c3)n2)c1	–	–	–	IC50 [7]: > 1000 nM; IC50 [8]: > 1000 nM; IC50 [9]: 890 nM; IC50 [10]: > 1000 nM; IC50 [11]: > 1000 nM; IC50 [12]: > 1000 nM; IC50 [13]: > 1000 nM
CN1CCc2cc(Nc3nccc(-c4c(-c5cccc(NC(=O)Cc6ccccc6)c5)nc5sccn45)n3)ccc2C1	160	57	81	–
O=C(Nc1ccccc1)Nc1cccc(-c2nc3sccn3c2-c2ccnc(Nc3ccc(N4CCOCC4)cc3)n2)c1	170	100	590	–
O=C(Nc1cccc(-c2nc3sccn3c2-c2ccncc2)c1)c1ccccc1Cl	240	240	> 12500	–
Nc1nc2ccc(-c3c(-c4cccc(NC(=O)c5ccccc5Cl)c4)nc4sccn34)cc2[nH]1	> 12500	> 12500	> 12500	–

From ChEMBL document CHEMBL1156213, “Imidazo[2,1-b]thiazoles: multitargeted inhibitors of both the insulin-like growth factor receptor and members of the epidermal growth factor family of receptor tyrosine kinases” (Bioorg Med Chem Lett, 2010)
